Data: article PMC7979765, “trans-Translation inhibitors bind to a novel site on the ribosome and clear Neisseria gonorrhoeae in vivo” (Nature Communications, 2021)
Converted amounts (≈) assume the structure as drawn. Read-outs that look alike come from different tables or passages of the source.

Columns and labels:
Escherichia coli = test: microbe, parasite or virus in culture; format: cell-based
Neisseria gonorrhoeae = test: MIC, microbroth dilution, G77L medium; format: cell-based

`O=C(Nc1nnc(-c2ccc(F)cc2)o1)c1ccc(Cl)cc1` [KKL-35, 4-chloro-N-(5-(4-fluorophenyl)-1,3,4-oxadiazol-2-yl)benzamide] gave an MIC (Escherichia coli; Escherichia coli KLE700, replicates) of at least 32 µg/mL, an MIC (Escherichia coli; Escherichia coli KLE701 (ΔtolC), replicates) of 0.50 µg/mL (≈ 1.57 µM) and an MIC (Escherichia coli; Escherichia coli, E. coli KLE701 (ΔtolC::tet), source data, individual replicates) of 0.496 µg/mL (≈ 1.56 µM). For the same compound, the MIC (Escherichia coli; Escherichia coli, Escherichia coli KLE700, replicates, read-out: MIC) was at least 32 µg/mL, the MIC (Escherichia coli; Escherichia coli, Escherichia coli KLE701 (ΔtolC), replicates) was 0.5 µg/mL (≈ 1.57 µM) and the MIC (Escherichia coli; Escherichia coli, strain KLE700, read-out: MIC) was at least 32 µg/mL. The MIC (Escherichia coli; Escherichia coli, strain KLE701, KLE700 ΔtolC::tet) was 0.5 µg/mL (≈ 1.57 µM), the MIC (Neisseria gonorrhoeae; Neisseria gonorrhoeae, ATCC49226, Neisseria gonorrhoeae ATCC 49226, source data, individual replicates, read-out: MIC) was 0.124 µg/mL (≈ 0.39 µM) and the MIC (Neisseria gonorrhoeae; Neisseria gonorrhoeae, ATCC49226, strain ATCC 49226, geomean of replicates, read-out: MIC GEOMEAN) was 0.124 µg/mL (≈ 0.39 µM). It also gave an MIC (Neisseria gonorrhoeae; Neisseria gonorrhoeae, ATCC49226, strain ATCC 49226, replicates 1-3, read-out: MIC) of 0.124 µg/mL (≈ 0.39 µM), an MIC (Neisseria gonorrhoeae; Neisseria gonorrhoeae, ATCC49226, strain ATCC 49226, type strain, read-out: MIC) of 0.12 µg/mL (≈ 0.378 µM) and an MIC (Neisseria gonorrhoeae; Neisseria gonorrhoeae, ATCC49226, strain MMX ATCC 49226, broth dilution by Micromyx, read-out: MIC) of 0.25 µg/mL (≈ 0.787 µM). For the same compound, the MIC (Neisseria gonorrhoeae; Neisseria gonorrhoeae, ATCC49226, strain MMX ATCC 49226, single data point, Micromyx, read-out: MIC) was 0.25 µg/mL (≈ 0.787 µM), the MIC (Neisseria gonorrhoeae; Neisseria gonorrhoeae, ATCC700719, strain ATCC 700719, SPT, read-out: MIC) was 0.25 µg/mL (≈ 0.787 µM) and the MIC (Neisseria gonorrhoeae; Neisseria gonorrhoeae, ATCC700719, strain ATCC 700719, geomean of replicates, read-out: MIC GEOMEAN) was 0.248 µg/mL (≈ 0.781 µM). It also gave an MIC (Neisseria gonorrhoeae; Neisseria gonorrhoeae, ATCC700719, strain ATCC 700719, replicates 1-3, read-out: MIC) of 0.248 µg/mL (≈ 0.781 µM), an MIC (Neisseria gonorrhoeae; Neisseria gonorrhoeae, ATCC700825, strain ATCC 700825, STR, read-out: MIC) of 0.06 µg/mL (≈ 0.189 µM) and an MIC (Neisseria gonorrhoeae; Neisseria gonorrhoeae, ATCC700825, strain ATCC 700825, geomean of replicates, read-out: MIC GEOMEAN) of 0.062 µg/mL (≈ 0.195 µM). It also gave an MIC (Neisseria gonorrhoeae; Neisseria gonorrhoeae, ATCC700825, strain ATCC 700825, replicates 1-3, read-out: MIC) of 0.062 µg/mL (≈ 0.195 µM), an MIC (Neisseria gonorrhoeae; Neisseria gonorrhoeae, BAA1846, strain BAA-1846, TET, read-out: MIC) of 0.06 µg/mL (≈ 0.189 µM) and an MIC (Neisseria gonorrhoeae; Neisseria gonorrhoeae, BAA1846, strain BAA-1846, geomean of replicates, read-out: MIC GEOMEAN) of 0.062 µg/mL (≈ 0.195 µM). The MIC (Neisseria gonorrhoeae; Neisseria gonorrhoeae, BAA1846, strain BAA-1846, replicates 1-3, read-out: MIC) was 0.062 µg/mL (≈ 0.195 µM), the MIC (Neisseria gonorrhoeae; Neisseria gonorrhoeae, strain H041, Fig. 1B, read-out: N. gonorrhoeae H041 MIC) was 0.12 µg/mL (≈ 0.378 µM) and the MIC (Neisseria gonorrhoeae; Neisseria gonorrhoeae, strain HO41, PEN, TET, CFM, CRO, LVX, read-out: MIC) was 0.25 µg/mL (≈ 0.787 µM). It also gave an MIC (Neisseria gonorrhoeae; Neisseria gonorrhoeae, strain HO41, geomean of replicates, read-out: MIC GEOMEAN) of 0.248 µg/mL (≈ 0.781 µM), an MIC (Neisseria gonorrhoeae; Neisseria gonorrhoeae, strain HO41, replicates 1-3, read-out: MIC) of 0.248 µg/mL (≈ 0.781 µM) and an MIC (Neisseria gonorrhoeae; Neisseria gonorrhoeae, strain MMX 6744, broth dilution by Micromyx, read-out: MIC) of 0.13 µg/mL (≈ 0.409 µM). For the same compound, the MIC (Neisseria gonorrhoeae; Neisseria gonorrhoeae, strain MMX 6744, single data point, Micromyx, read-out: MIC) was 0.13 µg/mL (≈ 0.409 µM), the MIC (Neisseria gonorrhoeae; Neisseria gonorrhoeae, strain MMX 6746, CIP, by Micromyx, read-out: MIC) was 0.13 µg/mL (≈ 0.409 µM) and the MIC (Neisseria gonorrhoeae; Neisseria gonorrhoeae, strain MMX 6746, single data point, Micromyx, read-out: MIC) was 0.13 µg/mL (≈ 0.409 µM). For the same compound, the MIC (Neisseria gonorrhoeae; Neisseria gonorrhoeae, strain MMX 6752, TET, by Micromyx, read-out: MIC) was 0.25 µg/mL (≈ 0.787 µM), the MIC (Neisseria gonorrhoeae; Neisseria gonorrhoeae, strain MMX 6752, single data point, Micromyx, read-out: MIC) was 0.25 µg/mL (≈ 0.787 µM) and the MIC (Neisseria gonorrhoeae; Neisseria gonorrhoeae, strain MMX 6753, by Micromyx, read-out: MIC) was 0.06 µg/mL (≈ 0.189 µM). For the same compound, the MIC (Neisseria gonorrhoeae; Neisseria gonorrhoeae, strain MMX 6753, single data point, Micromyx, read-out: MIC) was 0.06 µg/mL (≈ 0.189 µM), the MIC (Neisseria gonorrhoeae; Neisseria gonorrhoeae, strain MMX 6757, by Micromyx, read-out: MIC) was 0.06 µg/mL (≈ 0.189 µM) and the MIC (Neisseria gonorrhoeae; Neisseria gonorrhoeae, strain MMX 6757, single data point, Micromyx, read-out: MIC) was 0.06 µg/mL (≈ 0.189 µM). The MIC (Neisseria gonorrhoeae; Neisseria gonorrhoeae, strain MMX 6758, by Micromyx, read-out: MIC) was 0.13 µg/mL (≈ 0.409 µM), the MIC (Neisseria gonorrhoeae; Neisseria gonorrhoeae, strain MMX 6758, single data point, Micromyx, read-out: MIC) was 0.13 µg/mL (≈ 0.409 µM) and the MIC (Neisseria gonorrhoeae; Neisseria gonorrhoeae, strain MMX 6762, by Micromyx, read-out: MIC) was 0.13 µg/mL (≈ 0.409 µM). It also gave an MIC (Neisseria gonorrhoeae; Neisseria gonorrhoeae, strain MMX 6762, single data point, Micromyx, read-out: MIC) of 0.13 µg/mL (≈ 0.409 µM), an MIC (Neisseria gonorrhoeae; Neisseria gonorrhoeae, strain MMX 6767, by Micromyx, read-out: MIC) of 0.06 µg/mL (≈ 0.189 µM) and an MIC (Neisseria gonorrhoeae; Neisseria gonorrhoeae, strain MMX 6767, single data point, Micromyx, read-out: MIC) of 0.06 µg/mL (≈ 0.189 µM). The MIC (Neisseria gonorrhoeae; Neisseria gonorrhoeae, strain MMX 6771, TET, by Micromyx, read-out: MIC) was 0.06 µg/mL (≈ 0.189 µM), the MIC (Neisseria gonorrhoeae; Neisseria gonorrhoeae, strain MMX 6771, single data point, Micromyx, read-out: MIC) was 0.06 µg/mL (≈ 0.189 µM) and the MIC (Neisseria gonorrhoeae; Neisseria gonorrhoeae, strain MMX 6793, CIP, by Micromyx, read-out: MIC) was 0.06 µg/mL (≈ 0.189 µM). The MIC (Neisseria gonorrhoeae; Neisseria gonorrhoeae, strain MMX 6793, single data point, Micromyx, read-out: MIC) was 0.06 µg/mL (≈ 0.189 µM), the MIC (Neisseria gonorrhoeae; Neisseria gonorrhoeae, strain MMX 6797, CIP, TET, by Micromyx, read-out: MIC) was 0.06 µg/mL (≈ 0.189 µM) and the MIC (Neisseria gonorrhoeae; Neisseria gonorrhoeae, strain MMX 6797, single data point, Micromyx, read-out: MIC) was 0.06 µg/mL (≈ 0.189 µM). For the same compound, the MIC (Neisseria gonorrhoeae; Neisseria gonorrhoeae, strain MMX 6803, CIP, by Micromyx, read-out: MIC) was 0.13 µg/mL (≈ 0.409 µM), the MIC (Neisseria gonorrhoeae; Neisseria gonorrhoeae, strain MMX 6803, single data point, Micromyx, read-out: MIC) was 0.13 µg/mL (≈ 0.409 µM) and the MIC (Neisseria gonorrhoeae; Neisseria gonorrhoeae, strain MMX 6812, CIP, by Micromyx, read-out: MIC) was 0.13 µg/mL (≈ 0.409 µM). The MIC (Neisseria gonorrhoeae; Neisseria gonorrhoeae, strain MMX 6812, single data point, Micromyx, read-out: MIC) was 0.13 µg/mL (≈ 0.409 µM), the MIC (Neisseria gonorrhoeae; Neisseria gonorrhoeae, strain MMX 6818, CIP, by Micromyx, read-out: MIC) was 0.13 µg/mL (≈ 0.409 µM) and the MIC (Neisseria gonorrhoeae; Neisseria gonorrhoeae, strain MMX 6818, single data point, Micromyx, read-out: MIC) was 0.13 µg/mL (≈ 0.409 µM). The MIC (Neisseria gonorrhoeae; Neisseria gonorrhoeae, strain MMX 6819, CIP, by Micromyx, read-out: MIC) was 0.13 µg/mL (≈ 0.409 µM), the MIC (Neisseria gonorrhoeae; Neisseria gonorrhoeae, strain MMX 6819, single data point, Micromyx, read-out: MIC) was 0.13 µg/mL (≈ 0.409 µM) and the MIC (Neisseria gonorrhoeae; Neisseria gonorrhoeae, strain MMX 6879, by Micromyx, read-out: MIC) was 0.06 µg/mL (≈ 0.189 µM). For the same compound, the MIC (Neisseria gonorrhoeae; Neisseria gonorrhoeae, strain MMX 6879, single data point, Micromyx, read-out: MIC) was 0.06 µg/mL (≈ 0.189 µM), the MIC (Neisseria gonorrhoeae; Neisseria gonorrhoeae, strain MMX 6921, CIP, by Micromyx, read-out: MIC) was 0.25 µg/mL (≈ 0.787 µM) and the MIC (Neisseria gonorrhoeae; Neisseria gonorrhoeae, strain MMX 6921, single data point, Micromyx, read-out: MIC) was 0.25 µg/mL (≈ 0.787 µM). The MIC (Neisseria gonorrhoeae; Neisseria gonorrhoeae, strain MMX 6922, CIP, by Micromyx, read-out: MIC) was 0.25 µg/mL (≈ 0.787 µM), the MIC (Neisseria gonorrhoeae; Neisseria gonorrhoeae, strain MMX 6922, single data point, Micromyx, read-out: MIC) was 0.25 µg/mL (≈ 0.787 µM) and the MIC (Neisseria gonorrhoeae; Neisseria gonorrhoeae, strain MMX 6983, CIP, by Micromyx, read-out: MIC) was 0.25 µg/mL (≈ 0.787 µM). It also gave an MIC (Neisseria gonorrhoeae; Neisseria gonorrhoeae, strain MMX 6983, single data point, Micromyx, read-out: MIC) of 0.25 µg/mL (≈ 0.787 µM), an MIC (Neisseria gonorrhoeae; Neisseria gonorrhoeae, strain MMX 6989, by Micromyx, read-out: MIC) of 0.13 µg/mL (≈ 0.409 µM) and an MIC (Neisseria gonorrhoeae; Neisseria gonorrhoeae, strain MMX 6989, single data point, Micromyx, read-out: MIC) of 0.13 µg/mL (≈ 0.409 µM). The MIC (Neisseria gonorrhoeae; Neisseria gonorrhoeae, strain MMX 6990, CIP, by Micromyx, read-out: MIC) was 0.06 µg/mL (≈ 0.189 µM), the MIC (Neisseria gonorrhoeae; Neisseria gonorrhoeae, strain MMX 6990, single data point, Micromyx, read-out: MIC) was 0.06 µg/mL (≈ 0.189 µM) and the MIC (Neisseria gonorrhoeae; Neisseria gonorrhoeae, strain MMX 6992, by Micromyx, read-out: MIC) was 0.13 µg/mL (≈ 0.409 µM). It also gave an MIC (Neisseria gonorrhoeae; Neisseria gonorrhoeae, strain MMX 6992, single data point, Micromyx, read-out: MIC) of 0.13 µg/mL (≈ 0.409 µM), an MIC (Neisseria gonorrhoeae; Neisseria gonorrhoeae, strain MMX 6996, by Micromyx, read-out: MIC) of 0.13 µg/mL (≈ 0.409 µM) and an MIC (Neisseria gonorrhoeae; Neisseria gonorrhoeae, strain MMX 6996, single data point, Micromyx, read-out: MIC) of 0.13 µg/mL (≈ 0.409 µM). The MIC (Neisseria gonorrhoeae; Neisseria gonorrhoeae, strain MMX 6998, CIP, by Micromyx, read-out: MIC) was 0.25 µg/mL (≈ 0.787 µM), the MIC (Neisseria gonorrhoeae; Neisseria gonorrhoeae, strain MMX 6998, single data point, Micromyx, read-out: MIC) was 0.25 µg/mL (≈ 0.787 µM) and the MIC (Neisseria gonorrhoeae; Neisseria gonorrhoeae, strain MMX 7002, CIP, by Micromyx, read-out: MIC) was 0.13 µg/mL (≈ 0.409 µM). The MIC (Neisseria gonorrhoeae; Neisseria gonorrhoeae, strain MMX 7002, single data point, Micromyx, read-out: MIC) was 0.13 µg/mL (≈ 0.409 µM), the MIC (Neisseria gonorrhoeae; Neisseria gonorrhoeae, strain MMX 7005, by Micromyx, read-out: MIC) was 0.03 µg/mL (≈ 0.0944 µM) and the MIC (Neisseria gonorrhoeae; Neisseria gonorrhoeae, strain MMX 7005, single data point, Micromyx, read-out: MIC) was 0.03 µg/mL (≈ 0.0944 µM). For the same compound, the MIC90 (Neisseria gonorrhoeae; Neisseria gonorrhoeae, Supplementary Table 3, n = 32 (KKL-35), 71 (MBX-4132) strains, read-out: MIC90 (n)) was 0.25 µg/mL (≈ 0.787 µM), the MIC (Neisseria gonorrhoeae; strain ATCC 49226, replicates 1-3) was 0.124 µg/mL (≈ 0.39 µM) and the MIC (Neisseria gonorrhoeae; strain ATCC 700719, replicates 1-3) was 0.248 µg/mL (≈ 0.781 µM). It also gave an MIC (Neisseria gonorrhoeae; strain ATCC 700825, replicates 1-3) of 0.062 µg/mL (≈ 0.195 µM), an MIC (Neisseria gonorrhoeae; strain BAA-1846, replicates 1-3) of 0.062 µg/mL (≈ 0.195 µM) and an MIC (Neisseria gonorrhoeae; strain HO41, replicates 1-3) of 0.248 µg/mL (≈ 0.781 µM).
